Laboratory results from patent US8034812B2, “Imidazopyridazine derivative having kinase inhibitory activity and pharmaceutical agent thereof” (Takeda Pharmaceutical Company Limited, priority 2006, dated 2011).

Target: T1, BRAF (V600E) enzyme (Homo sapiens, UniProt P15056, V600E)
T1 construct: area encoding the BRAF kinase domain region, so that the protein contains an N-terminal Flag; made in house; host or cells: SF-21 insect cells, recombinant baculovirus BAC-V600E
Test: Determination of BRAF (V600E) kinase inhibitory activity ([γ-32P]ATP, GST-MEK1 (K96R) substrate)
Type: biochemical
Details: read-out: BRAF (V600E) kinase inhibitory rate
Procedure: Human BRAF gene was cloned by PCR using human Testis cDNA library (Clontech) as a template. The primer used for PCR was prepared from base sequence (Genbank Accession NM_004333) information of BRAF gene by adding a base sequence encoding flag peptide and a recognition sequence of the restriction enzyme to area encoding the BRAF kinase domain region, so that the protein contains an N-terminal Flag. The primer base sequence is shown below.
The PCR reaction was conducted using Pyrobest (Takara Shuzo Co., Ltd). The obtained PCR product was electrophoresed on agarose gel (1%), the DNA fragment amplified by PCR was recovered from the gel, and then digested with restriction enzymes EcoRI and SalI. The DNA treated with the restriction enzymes was electrophoresed on agarose gel (1%), and the obtained DNA fragment was recovered and ligated to plasmid pFASTBAC1 (Invitrogen) digested with restriction enzymes EcoRI and SalI to give expression plasmid pFB-BRAF, and the base sequence of the insert fragment was confirmed. In addition, mutation was introduced into V600E using a Quick change Site Directed Mutagenesis kit (Stratagene). The nucleotide sequences of the primers used are shown in the following.
SF-21 cells were sown at 1×10^6 cells/mL to Sf-900II SFM medium (1 L, Invitrogen) containing 10% fetal bovine serum (Trace), 50 mg/L Gentamicin (Invitrogen) and 0.1% Pluronic F-68 (Invitrogen), and shaking culture was performed using a 2 L volume Erlenmeyer flask at 27° C., 100 rpm. After culturing for 24 hrs, recombinant baculovirus BAC-V600E (13.4 mL) was added to the mixture, and the mixture was further cultured for 3 days. The culture medium was centrifuged at 2,000 rpm for 5 min to give virus-infected cells. The infected cells were washed with a phosphate buffered saline (Invitrogen), centrifuged under the same conditions, and the cells were preserved at −80° C. The cryopreserved cells were thawed in ice, suspended in buffer A (50 mM Tris buffer (30 mL, pH 7.4) containing 20% glycerol, 0.15 M NaCl) supplemented with Complete Protease Inhibitor (Boehringer), and ruptured 3 times with a Polytron homogenizer (Kinematica) at 20,000 rpm for 30 sec. The ruptured medium was clarified by centrifugation at 40,000 rpm for 30 min and filtered with a 0.45 μm filter. The filtrate was passed through a column packed with Anti-FLAG M2 Affinity Gel (4 mL, Sigma) at a flow rate of about 0.5 mL/min. The column was washed with buffer A, and eluted with buffer A containing 100 μg/mL of FLAG peptide. The buffer of this concentrate was exchanged using NAP25 column (Amersham Bioscience) equilibrated with buffer A and the fractions were cryopreserved at −80° C.
A test compound (2.5 μl) dissolved in dimethyl sulfoxide (DMSO) was added to 37.5 μl of a reaction solution (25 mM HEPES (pH 7.5), 10 mM magnesium acetate, 1 mM dithiothreitol) containing BRAF (V600E) enzyme (30 ng) and recombinant type protein GST-MEK1 (K96R) 250 ng, and the mixture was incubated at room temperature for 10 min. ATP solution (10 μl) (2.5 μM ATP, 0.1 μCi [γ-^32P]ATP) was added to the obtained mixture, and the mixture was reacted at room temperature for 20 min. The reaction was quenched by adding 50 μL of ice-cooled 20% trichloroacetic acid (Wako Pure Chemical Industries, Ltd.). The reaction solution was allowed to stand at 4° C. for 30 min, and the acid-precipitable fraction was transferred to GF/C filter plate (Millipore Corporation) using cell harvester (PerkinElmer). The plate was dried at 45° C. for 60 min, and 40 μL of MicroScinti 0 (PerkinElmer) was added thereto. The radioactivity was measured using TopCount (PerkinElmer). The kinase inhibitory rate (%) of the test compound was calculated by the following formula: Inhibitory rate(%)=(1−(count of test compound−blank)÷(control−blank))×100
The count of the solution reacted without addition of the compound was used as a “control”, and the count of the solution without the compound and enzyme was used as a “blank”. […]

T1 sequence (P15056 457-717 V600E limits assumed): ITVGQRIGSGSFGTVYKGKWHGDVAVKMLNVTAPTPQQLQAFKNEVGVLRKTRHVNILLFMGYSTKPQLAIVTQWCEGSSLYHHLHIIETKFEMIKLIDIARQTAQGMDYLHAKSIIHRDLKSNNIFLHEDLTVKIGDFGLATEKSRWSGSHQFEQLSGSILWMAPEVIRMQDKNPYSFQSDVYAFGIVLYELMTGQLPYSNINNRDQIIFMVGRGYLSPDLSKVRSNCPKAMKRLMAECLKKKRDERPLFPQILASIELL

| inhibition at 1 µM | Compound |
| --- | --- |
| ≥ 90% | CN(C)CC(=O)Nc1cn2nc(Oc3cccc(NC(=O)c4cccc(C(F)(F)F)c4)c3)ccc2n1 [Example 398, N-[3-({2-[(N,N-dimethylglycyl)amino]imidazo[1,2-b]pyridazin-6-yl}oxy)phenyl]-3-(trifluoromethyl)benzamide] |
| ≥ 90% | Cc1ccc(Oc2ccc3nc(NC(=O)C4CC4)cn3n2)cc1NC(=O)c1cccc(C(C)(C)C#N)c1 [Example 330, 3-(1-cyano-1-methylethyl)-N-[5-({2-[(cyclopropylcarbonyl)amino]imidazo[1,2-b]pyridazin-6-yl}oxy)-2-methylphenyl]benzamide] |
| ≥ 90% | O=C(Nc1cccc(Oc2ccc3nc(NC(=O)C4CC4)cn3n2)c1)Nc1cccc(C(F)(F)F)c1 [Example 431, N-{6-[3-({[3-(trifluoromethyl)phenyl]carbamoyl}amino)phenoxy]imidazo[1,2-b]pyridazin-2-yl}cyclopropanecarboxamide] |
| ≥ 90% | O=C(Nc1cccc(Sc2ccc3nc(NC(=O)C4CC4)cn3n2)c1)c1cccc(C(F)(F)F)c1 [Example 427, N-[3-({2-[(cyclopropylcarbonyl)amino]imidazo[1,2-b]pyridazin-6-yl}thio)phenyl]-3-(trifluoromethyl)benzamide] |
